ChEMBL document CHEMBL5316329, “Structure-Based Optimization of 2,4,5-Trisubstituted Pyrimidines as Potent HIV-1 Non-Nucleoside Reverse Transcriptase Inhibitors: Exploiting the Tolerant Regions of the Non-Nucleoside Reverse Transcriptase Inhibitors' Binding Pocket” (J Med Chem, 2023)

Key:
[1] = test system: Human immunodeficiency virus 1; test: Antiviral activity against wild-type HIV-1 IIIB infected in human MT4 cells assessed as virus-induced cytopathicity treated for 5 days by MTT assay; format: functional, organism-based; conditions: Human immunodeficiency virus 1, IIIB, MT4, 120 h
[2] = test system: Human immunodeficiency virus 1; test: Antiviral activity against NNRTI-resistant HIV-1 RES056 infected in human MT4 cells assessed as virus-induced cytopathicity treated for 5 days by MTT assay; format: functional, organism-based; conditions: Human immunodeficiency virus 1, RES056, MT4, 120 h
[3] = Cytotoxicity against human MT4 cells assessed as reduction in cell viability treated for 5 days by MTT assay; format: toxicity, cell-based; conditions: time 5 day
[4] = Selectivity index, ratio of CC50 for human MT4 cells to EC50 for wild-type HIV-1 IIIB infected in human MT4 cells; format: toxicity, cell-based; conditions: read-out: Selectivity Index
[5] = Selectivity index, ratio of CC50 for human MT4 cells to EC50 for NNRTI-resistant HIV-1 RES056 infected in human MT4 cells; format: toxicity, cell-based; conditions: read-out: Selectivity Index
[6] = target: Human immunodeficiency virus type 1 reverse transcriptase (Human immunodeficiency virus 1, UniProt Q72547); test: Inhibition of wild-type HIV-1 reverse transcriptase assessed as inhibition of biotin-dUTP incorporation
[7] = test system: Human immunodeficiency virus 1; test: Antiviral activity against HIV-1 harboring L100I mutant infected in human MT4 cells assessed as virus-induced cytopathicity treated for 5 days by MTT assay; format: functional, organism-based; conditions: Human immunodeficiency virus 1, MT4, 120 h
[8] = test system: Human immunodeficiency virus 1; test: Antiviral activity against HIV-1 harboring K103N mutant infected in human MT4 cells assessed as virus-induced cytopathicity treated for 5 days by MTT assay; format: functional, organism-based; conditions: Human immunodeficiency virus 1, MT4, 120 h
[9] = test system: Human immunodeficiency virus 1; test: Antiviral activity against HIV-1 harboring Y181C mutant infected in human MT4 cells assessed as virus-induced cytopathicity treated for 5 days by MTT assay; format: functional, organism-based; conditions: Human immunodeficiency virus 1, MT4, 120 h
[10] = test system: Human immunodeficiency virus 1; test: Antiviral activity against HIV-1 harboring Y188L mutant infected in human MT4 cells assessed as virus-induced cytopathicity treated for 5 days by MTT assay; format: functional, organism-based; conditions: Human immunodeficiency virus 1, MT4, 120 h
[11] = test system: Human immunodeficiency virus 1; test: Antiviral activity against HIV-1 E138K mutant infected in human MT4 cells assessed as virus-induced cytopathicity treated for 5 days by MTT assay; format: functional, organism-based; conditions: Human immunodeficiency virus 1, MT4, 120 h
[12] = test system: Human immunodeficiency virus 1; test: Antiviral activity against HIV-1 F227L/V106A mutant infected in human MT4 cells assessed as virus-induced cytopathicity treated for 5 days by MTT assay; format: functional, organism-based; conditions: Human immunodeficiency virus 1, MT4, 120 h
[13] = target: T1, Cytochrome P450 1A2 (Homo sapiens, UniProt P05177); test: Inhibition of CYP1A2 (unknown origin); format: ADME
T1 sequence (P05177 whole entry): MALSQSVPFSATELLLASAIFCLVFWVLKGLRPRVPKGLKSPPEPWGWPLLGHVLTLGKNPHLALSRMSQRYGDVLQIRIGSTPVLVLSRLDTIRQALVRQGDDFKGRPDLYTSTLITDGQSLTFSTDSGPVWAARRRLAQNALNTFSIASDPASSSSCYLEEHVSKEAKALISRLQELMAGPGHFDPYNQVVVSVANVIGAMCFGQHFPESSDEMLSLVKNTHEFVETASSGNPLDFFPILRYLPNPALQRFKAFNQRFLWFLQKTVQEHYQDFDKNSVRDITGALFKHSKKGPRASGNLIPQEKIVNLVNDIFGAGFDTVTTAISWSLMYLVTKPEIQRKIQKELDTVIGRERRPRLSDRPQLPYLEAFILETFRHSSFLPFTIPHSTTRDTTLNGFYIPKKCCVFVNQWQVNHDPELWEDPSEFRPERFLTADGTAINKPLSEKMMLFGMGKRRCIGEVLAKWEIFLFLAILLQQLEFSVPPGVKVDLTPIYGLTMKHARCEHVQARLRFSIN

[14] = target: Cytochrome P450 2C9 (Homo sapiens, UniProt P11712); test: Inhibition of CYP2C9 (unknown origin); format: ADME
Cytochrome P450 2C9, sequence (P11712 whole entry): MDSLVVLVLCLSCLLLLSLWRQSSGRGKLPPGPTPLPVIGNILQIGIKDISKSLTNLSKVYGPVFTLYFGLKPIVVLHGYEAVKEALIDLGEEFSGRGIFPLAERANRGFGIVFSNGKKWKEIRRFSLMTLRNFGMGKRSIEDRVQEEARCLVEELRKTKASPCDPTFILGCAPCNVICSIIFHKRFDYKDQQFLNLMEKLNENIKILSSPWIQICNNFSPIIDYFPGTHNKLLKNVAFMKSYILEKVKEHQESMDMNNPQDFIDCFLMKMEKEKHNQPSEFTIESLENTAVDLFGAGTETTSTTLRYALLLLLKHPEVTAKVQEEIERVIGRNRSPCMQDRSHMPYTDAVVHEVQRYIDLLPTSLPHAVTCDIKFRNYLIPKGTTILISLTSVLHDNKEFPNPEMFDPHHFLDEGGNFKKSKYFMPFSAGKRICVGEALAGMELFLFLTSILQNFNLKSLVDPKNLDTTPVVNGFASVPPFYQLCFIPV

[15] = target: Cytochrome P450 2C19 (Homo sapiens, UniProt P33261); test: Inhibition of CYP2C19 (unknown origin); format: ADME
Cytochrome P450 2C19, sequence (P33261 whole entry): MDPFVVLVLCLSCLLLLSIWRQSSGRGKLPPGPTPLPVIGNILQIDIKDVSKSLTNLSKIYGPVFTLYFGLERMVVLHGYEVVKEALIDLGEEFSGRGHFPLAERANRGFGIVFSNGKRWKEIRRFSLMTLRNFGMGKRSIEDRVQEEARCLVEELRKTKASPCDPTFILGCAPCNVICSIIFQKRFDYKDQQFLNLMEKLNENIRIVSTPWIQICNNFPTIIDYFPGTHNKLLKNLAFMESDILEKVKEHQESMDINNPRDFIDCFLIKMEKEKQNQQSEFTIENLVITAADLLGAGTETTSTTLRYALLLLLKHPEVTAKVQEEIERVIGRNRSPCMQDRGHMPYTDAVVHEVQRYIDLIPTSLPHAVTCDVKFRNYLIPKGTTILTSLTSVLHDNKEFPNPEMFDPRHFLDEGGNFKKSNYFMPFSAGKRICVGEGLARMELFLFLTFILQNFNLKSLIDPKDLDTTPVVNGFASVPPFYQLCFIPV

[16] = target: Cytochrome P450 2D6 (Homo sapiens, UniProt P10635); test: Inhibition of CYP2D6 (unknown origin); format: ADME
Cytochrome P450 2D6, sequence (P10635 whole entry): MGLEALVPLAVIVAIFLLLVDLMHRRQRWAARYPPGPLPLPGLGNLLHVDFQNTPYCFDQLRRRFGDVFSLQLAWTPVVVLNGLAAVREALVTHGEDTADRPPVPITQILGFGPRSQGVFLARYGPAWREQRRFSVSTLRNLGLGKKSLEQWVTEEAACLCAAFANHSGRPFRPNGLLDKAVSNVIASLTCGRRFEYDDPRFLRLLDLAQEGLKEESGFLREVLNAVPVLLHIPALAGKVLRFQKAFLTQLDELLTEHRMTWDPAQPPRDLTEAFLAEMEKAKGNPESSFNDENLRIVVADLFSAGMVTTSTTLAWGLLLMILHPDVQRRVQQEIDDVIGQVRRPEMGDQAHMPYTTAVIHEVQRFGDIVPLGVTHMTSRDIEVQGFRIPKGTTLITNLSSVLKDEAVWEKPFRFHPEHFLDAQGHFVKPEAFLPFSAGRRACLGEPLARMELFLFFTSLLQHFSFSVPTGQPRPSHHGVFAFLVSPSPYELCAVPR

[17] = target: Cytochrome P450 3A4 (Homo sapiens, UniProt P08684); test: Inhibition of CYP3A4 (unknown origin) using midazolam as substrate; format: ADME
Cytochrome P450 3A4, sequence (P08684 whole entry): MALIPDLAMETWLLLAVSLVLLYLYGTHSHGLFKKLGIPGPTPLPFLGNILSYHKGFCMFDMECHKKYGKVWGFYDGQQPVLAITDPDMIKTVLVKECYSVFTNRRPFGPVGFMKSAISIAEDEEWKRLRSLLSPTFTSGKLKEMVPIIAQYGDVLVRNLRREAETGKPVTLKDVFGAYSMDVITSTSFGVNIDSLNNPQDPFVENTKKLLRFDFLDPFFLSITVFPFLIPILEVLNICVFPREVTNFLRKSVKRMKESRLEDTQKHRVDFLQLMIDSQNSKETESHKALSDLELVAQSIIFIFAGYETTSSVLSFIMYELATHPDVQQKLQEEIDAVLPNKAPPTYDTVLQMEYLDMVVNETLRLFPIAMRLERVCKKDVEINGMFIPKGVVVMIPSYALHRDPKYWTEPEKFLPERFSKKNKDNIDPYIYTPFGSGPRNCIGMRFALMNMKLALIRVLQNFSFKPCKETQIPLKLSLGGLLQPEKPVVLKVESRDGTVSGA

[18] = test system: Human immunodeficiency virus 1; test: Antiviral activity against HIV-1 harboring K103N/Y181C mutant infected in human MT4 cells assessed as virus-induced cytopathicity treated for 5 days by MTT assay; format: functional, organism-based; conditions: Human immunodeficiency virus 1, MT4, 120 h
[19] = Half life in Sprague-Dawley rat at 2 mg/kg, iv; format: ADME, organism-based; conditions: in vivo
[20] = Tmax in Sprague-Dawley rat at 2 mg/kg, iv; format: ADME, organism-based; conditions: in vivo
[21] = Cmax in Sprague-Dawley rat at 2 mg/kg, iv; format: ADME, organism-based; set-up: dose 2 mg/kg, route iv; conditions: in vivo
[22] = AUC (0 to t) in Sprague-Dawley rat at 2 mg/kg, iv; format: ADME, organism-based; set-up: dose 2 mg/kg, route iv; conditions: in vivo
[23] = AUC (0 to infinity) in Sprague-Dawley rat at 2 mg/kg, iv; format: ADME, organism-based; set-up: dose 2 mg/kg, route iv; conditions: in vivo
[24] = Clearance in Sprague-Dawley rat at 2 mg/kg, iv; format: ADME, organism-based; conditions: in vivo
[25] = Half life in Sprague-Dawley rat at 10 mg/kg, po; format: ADME, organism-based; conditions: in vivo
[26] = Tmax in Sprague-Dawley rat at 10 mg/kg, po; format: ADME, organism-based; conditions: in vivo
[27] = Cmax in Sprague-Dawley rat at 10 mg/kg, po; format: ADME, organism-based; set-up: dose 10 mg/kg, route po; conditions: in vivo
[28] = AUC (0 to t) in Sprague-Dawley rat at 10 mg/kg, po; format: ADME, organism-based; set-up: dose 10 mg/kg, route po; conditions: in vivo
[29] = AUC (0 to infinity) in Sprague-Dawley rat at 10 mg/kg, po; format: ADME, organism-based; set-up: dose 10 mg/kg, route po; conditions: in vivo
[30] = Oral bioavailability in Sprague-Dawley rat at 10 mg/kg; format: ADME, organism-based; conditions: in vivo
[31] = Acute toxicity in Kunming mouse assessed as poisoning symptoms at 2000 mg/kg, po measured after 7 days; format: organism-based; conditions: in vivo, 168 h, time 7 day
[32] = Acute toxicity in Kunming mouse assessed as mortality at 2000 mg/kg, po measured after 7 days; format: organism-based; conditions: in vivo, 168 h, time 7 day
[33] = Acute toxicity in Kunming mouse assessed as body weight change at 2000 mg/kg, po measured after 7 days; format: organism-based; conditions: in vivo, 168 h, time 7 day

With `Cc1cc(/C=C/C#N)cc(C)c1Cc1nc(NC2CCN(Cc3ccc(S(C)(=O)=O)cc3)CC2)ncc1-c1cncnc1` as the compound, how does the EC50 [1] read?
The EC50 was 3.65 nM.

And the EC50 [2]?
The EC50 was 14 nM.

And the CC50 at 120 h [3]?
Its CC50 at 120 h is 2900 nM.

What about the selectivity ratio [4] of the same compound?
Its selectivity ratio is 796.

What about the selectivity ratio [5] of the same compound?
Its selectivity ratio is 207.

And the IC50 [6]?
Its IC50 is 104 nM.

What about the EC50 ([7]; read-out: EC50) of the same compound?
Its EC50 is 3.14 nM.

What about the EC50 ([8]; read-out: EC50) of the same compound?
Its EC50 is 3.6 nM.

What about the EC50 ([9]; read-out: EC50) of the same compound?
The EC50 was 5.45 nM.

And the EC50 ([10]; read-out: EC50)?
The EC50 was 22.1 nM.

What about the EC50 ([11]; read-out: EC50) of the same compound?
The EC50 was 5.95 nM.

What about the EC50 ([12]; read-out: EC50) of the same compound?
The EC50 was 9.14 nM.

And the IC50 [13]?
The IC50 was over 50000 nM.

What about the IC50 [14] of the same compound?
Its IC50 is 9580 nM.

What about the IC50 [15] of the same compound?
The IC50 was over 50000 nM.

And the IC50 [16]?
Its IC50 is 25800 nM.

What about the IC50 [17] of the same compound?
The IC50 was 6540 nM.

What does the source list for `Cc1cc(/C=C/C#N)cc(C)c1Cc1nc(NC2CCN(Cc3ccc(C(N)=O)cc3)CC2)ncc1-c1cncnc1`?
EC50 [1]: 4.95 nM; EC50 [2]: 10.1 nM; CC50 at 120 h [3]: 22800 nM; selectivity ratio [4]: 4630; selectivity ratio [5]: 2270; EC50 [6]: 4.9 nM; IC50 [6]: 121 nM; EC50 ([7]; read-out: EC50): 3.43 nM; EC50 ([7]; read-out: pEC50 (converted)): 3.47 nM; EC50 ([8]; read-out: EC50): 4.77 nM; EC50 ([8]; read-out: pEC50 (converted)): 4.79 nM; EC50 ([9]; read-out: EC50): 5.88 nM; EC50 ([9]; read-out: pEC50 (converted)): 5.89 nM; EC50 ([10]; read-out: EC50): 15.3 nM; EC50 ([10]; read-out: pEC50 (converted)): 15.5 nM; EC50 ([11]; read-out: EC50): 9.49 nM; EC50 ([11]; read-out: pEC50 (converted)): 9.55 nM; EC50 ([12]; read-out: EC50): 11.8 nM; EC50 ([12]; read-out: pEC50 (converted)): 12 nM; EC50 [18]: 10 nM; IC50 [13]: > 50000 nM; IC50 [14]: 18900 nM; IC50 [15]: > 50000 nM; IC50 [16]: 42500 nM; IC50 [17]: 10900 nM; half-life [19]: 1.33 h; Tmax [20]: 1.98 min; Cmax [21]: 587 ng/mL; AUC(0-t) [22]: 400 ng·h/mL; AUC(0-inf) [23]: 403 ng·h/mL; clearance [24]: 82.7 mL/min/kg; half-life [25]: 1.2 h; Tmax [26]: 2 h; Cmax [27]: 252 ng/mL; AUC(0-t) [28]: 654 ng·h/mL; AUC(0-inf) [29]: 642 ng·h/mL; bioavailability [30]: 31.8%; Activity [31]: Non-Toxic; Activity [32]: Non-Toxic; Activity [33]: Non-Toxic
